Columns and labels:
[1] = system: REL-A (p65) nuclear translocation in HeLa cells; experiment: REL-A nuclear translocation assay (classical NF-kB signaling), high content imaging; format: cell-based; settings: Homo sapiens, HeLa, compounds 4.5 hours, then 10 ng/mL TNF-α for 30 minutes, read-out: REL-A HeLa Transloc Assay (IC50)
Protocol: (§1) (2) A second set of cell assay are used to define the selectivity of NIK inhibitors toward inhibition of classical vs. non-classical NF-kB signaling and rely on quantification of the nuclear translocation of p52 (NF-kB2) and REL-A (p65) using high content cellular imaging. For the p52 (non-classical NF-kB signaling) nuclear translocation assay, HeLa cells are treated with different concentrations of compounds (0.2% DMSO final) in medium containing 10% fetal bovine serum and then stimulated with 100 ng/mL, of an anti-lymphotoxin beta receptor antibody (R&D Systems) for 5 hours. In the REL-A nuclear translocation assay, HeLa cells are incubated with compounds (0.2% DMSO final) for 4.5 hours in medium containing 10% fetal bovine serum before stimulating them with 10 ng/mL tumor necrosis factor (TNF)-α (R&D Systems) for 30 minutes. Cells are fixed with 4% paraformaldehyde, permeabilized by adding 0.1% Triton X-100 in phosphate buffered saline, and then are incubated with either 2 ug/mL anti-p52 antibody (Millipore) or 400 ng/mL anti-REL-A (p65) antibody (Santa Cruz Biotechnology). Finally, the cells are incubated with an Alexa488-labeled secondary antibody (Invitrogen) and DRAQ5 DNA stain (Biostatus). Imaging is carried out using an Opera reader (Perkin Elmer) and data are analyzed with the aid of Acapella software (Perkin Elmer). The p52 or REL-A translocation into the nucleus is quantified by the ratio of the nuclear to cytoplasmic signal intensity. […] The compounds in listed in Table 1 have the corresponding inhibitory value (IC50 in micromolar) for NIK p52 Translocation Assay as set forth in Table 2.
The compounds in listed in Table 1 has the corresponding inhibitory value (IC50 in micromolar) for NIK RelA Translocation Assay as set forth in Table 2.

[2] = system: p52 (NF-kB2) nuclear translocation in HeLa cells; experiment: p52 nuclear translocation assay (non-classical NF-kB signaling), high content imaging; format: cell-based; settings: Homo sapiens, HeLa, 5 h, 100 ng/mL anti-lymphotoxin beta receptor antibody for 5 hours, read-out: p52 HeLa Transloc Assay (IC50)
Protocol: as §1

[3] = target: nuclear factor-kappa B (NF-kB)-inducing kinase (NIK) (Homo sapiens (Human), UniProt Q99558); experiment: NIK Enzyme Inhibition Assay (Transcreener ADP fluorescence polarization); format: biochemical; settings: purified NIK 0.2-1 nM, 10 uM ATP, Morrison's quadratic equation; read-out: NIK ADP-FP (Ki uM)
Sequence of nuclear factor-kappa B (NF-kB)-inducing kinase (NIK) (Q99558 whole entry): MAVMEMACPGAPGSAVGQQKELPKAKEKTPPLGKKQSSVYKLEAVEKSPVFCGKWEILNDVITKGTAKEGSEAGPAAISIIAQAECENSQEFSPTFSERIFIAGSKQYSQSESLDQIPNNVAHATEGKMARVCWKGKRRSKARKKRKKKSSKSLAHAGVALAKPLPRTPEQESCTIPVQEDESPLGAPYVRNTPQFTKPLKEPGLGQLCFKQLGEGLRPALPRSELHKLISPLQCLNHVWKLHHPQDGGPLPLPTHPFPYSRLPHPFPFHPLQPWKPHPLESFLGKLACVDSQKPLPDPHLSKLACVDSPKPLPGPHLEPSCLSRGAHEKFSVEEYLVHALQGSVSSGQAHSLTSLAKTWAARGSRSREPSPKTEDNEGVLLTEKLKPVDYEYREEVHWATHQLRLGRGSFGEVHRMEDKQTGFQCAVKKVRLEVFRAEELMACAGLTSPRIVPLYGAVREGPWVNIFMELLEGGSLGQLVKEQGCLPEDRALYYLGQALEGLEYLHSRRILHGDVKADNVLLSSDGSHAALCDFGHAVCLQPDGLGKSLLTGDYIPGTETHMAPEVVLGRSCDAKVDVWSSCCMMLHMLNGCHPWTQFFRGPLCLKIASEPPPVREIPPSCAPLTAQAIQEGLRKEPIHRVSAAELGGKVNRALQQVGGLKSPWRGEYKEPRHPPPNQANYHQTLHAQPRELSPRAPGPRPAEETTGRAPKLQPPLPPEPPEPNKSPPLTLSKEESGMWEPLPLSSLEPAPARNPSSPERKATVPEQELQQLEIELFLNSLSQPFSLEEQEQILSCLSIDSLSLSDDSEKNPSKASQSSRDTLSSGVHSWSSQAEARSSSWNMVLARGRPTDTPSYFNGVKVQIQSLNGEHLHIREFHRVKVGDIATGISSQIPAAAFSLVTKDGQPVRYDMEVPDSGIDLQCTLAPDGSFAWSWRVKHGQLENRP
How it was run: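 Fluorescence-polarization ADP detection (tracer displacement, 633 nm excitation) read after EDTA/Brij quench. Reaction: 0.2-1 nM insect-cell-derived NIK, 10 uM ATP, HEPES pH 7.2 with MgCl2 and DTT, 1% DMSO, 1-3.5 h with compounds.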

SMILES	IC50 [1] [nM]	IC50 [2] [nM]	Ki [3] [µM]
CNC(=O)c1c(C(N)=O)nc2n1C1CC(C1)c1ccc(C#C[C@@](C)(O)c3ccccn3)cc1-2	> 20000	830	0.0021
Cc1cc([C@](C)(O)C#Cc2cc3c(cc2F)C2CC(C2)n2cc(C(N)=O)nc2-3)on1	> 20000	675	0.0024
Cc1cc(-c2c(C(N)=O)nc3n2CCOc2cc(F)c(C#C[C@@](C)(O)c4noc(C)n4)cc2-3)[nH]n1	> 20000	2500	0.0087
CNC(=O)c1c(C(N)=O)nc2n1CCOc1ccc(C#CC3(O)CCC3)cc1-2	> 20000	727	0.0022
Cc1cc([C@](C)(O)C#Cc2ccc3c(c2)-c2nc(C(N)=O)c(Cc4ccnn4C)n2C2CC3C2)no1	> 20000	1700	0.0002
Cc1nc2ccccc2n1Cc1c(C(N)=O)nc2n1C1CC(C1)c1ccc(C#C[C@]3(O)CCN(C)C3=O)cc1-2	> 20000	2900	0.00087
CN1CC[C@@](O)(C#Cc2ccc3c(c2)-c2nc(C(N)=O)c(C(F)(F)F)n2CCO3)C1=O	> 20000	442	0.00072
CC(C)NC(=O)c1c(C(N)=O)nc2n1CCOc1ccc(C#C[C@]3(O)CCN(C)C3=O)cc1-2	> 20000	316	0.0012
CC(C)(O)C#Cc1cc2c(cc1F)C1CC(C1)c1c-2nc(C(N)=O)n1C(F)F [Example 411, 9-fluoro-10-(3-hydroxy-3-methyl-but-1-ynyl)-3-(pyrrolidin-1-ylmethyl)-5,6,7,12-tetrahydro-5,7-methanobenzo[c]imidazo[1,2-a]azepine-2-carboxamide]	20000	73.2	–
Cc1cc([C@](C)(O)C#Cc2ccc3c(c2)-c2nc(C(N)=O)c(Cn4c(C)nc5ccccc54)n2CCO3)no1 [Example 415, 9-fluoro-10-(3-hydroxy-3-methyl-but-1-ynyl)-3-[(2-methoxyethylamino)methyl]-5,6,7,12-tetrahydro-5,7-methanobenzo[c]imidazo[1,2-a]azepine-2-carboxamide]	> 20000	979	–
Cc1nc2ccccc2n1Cc1c(C(N)=O)nc2n1CCOc1ccc(C#C[C@]3(O)CCN(C)C3=O)cc1-2 [Example 416, 9-fluoro-10-[(3R)-3-hydroxy-3-(5-methylisoxazol-3-yl)but-1-ynyl]-3-[1-(2-hydroxy-2-methyl-propyl)pyrazol-4-yl]-5,6,7,12-tetrahydro-5,7-methanobenzo[c]imidazo[1,2-a]azepine-2-carboxamide]	> 20000	3200	–
CN1CC[C@@](O)(C#Cc2cc3c(cc2F)OCCn2c-3nc(C(N)=O)c2C2CC2)C1=O [Example 418, 9-fluoro-10-(3-hydroxy-3-methyl-but-1-ynyl)-3-[[2-methoxyethyl(methyl)amino]methyl]-5,6,7,12-tetrahydro-5,7-methanobenzo[c]imidazo[1,2-a]azepine-2-carboxamide]	> 20000	515	–
CN1CC[C@@](O)(C#Cc2ccc3c(c2)-c2nc(C(N)=O)c(C(=O)NC4CCOCC4)n2CCO3)C1=O [Example 422, 9-fluoro-10-(3-hydroxy-3-methyl-but-1-ynyl)-3-(1-hydroxy-1-methyl-ethyl)-5,6,7,12-tetrahydro-5,7-methanobenzo[c]imidazo[1,2-a]azepine-2-carboxamide]	> 20000	406	–
Cc1cc([C@](C)(O)C#Cc2ccc3c(c2)-c2nc(C(N)=O)c(CN4CCCC4)n2C2CC3C2)no1 [Example 424, 10-(3-hydroxy-3-methyl-but-1-ynyl)-N3-methyl-5,6,7,12-tetrahydro-5,7-methanobenzo[c]imidazo[1,2-a]azepine-2,3-dicarboxamide]	> 20000	3200	–
Cn1c(C(N)=O)nc2c1C1CC(C1)c1ccc(C#C[C@@](C)(O)c3ncccn3)cc1-2 [Example 427, 9-fluoro-10-(3-hydroxy-3-methyl-but-1-ynyl)-N3-methyl-5,6,7,12-tetrahydro-5,7-methanobenzo[c]imidazo[1,2-a]azepine-2,3-dicarboxamide]	> 20000	453	–
Cc1nc([C@](C)(O)C#Cc2ccc3c(c2)-c2nc(C(N)=O)sc2C2CC3C2)no1 [Example 450, (R)-9-(3-hydroxy-3-(5-methyl-1,2,4-oxa-diazol-3-yl)but-1-yn-1-yl)-5,6-dihydro-4H-4,6-methanobenzo[6,7]cyclo-hepta[1,2-d]thiazole-2-carboxamide]	> 20000	459	–
CN1CC[C@@](O)(C#Cc2ccc3c(c2)-n2nc(C(N)=O)cc2C2(CC2)CO3)C1=O [Example 460]	> 20000	252	–

Source: patent US9034866B2 (Genentech, Inc., priority 2012, dated 2015)
